Assay results: patent US10414797B2, “Gelatinase inhibitors and use thereof” (Iproteos S.L, priority 2015, dated 2019)
Where a SMILES comes first, the peptide text is derived from it. [ ]: non-standard residue; d: D form. The star is where a group is joined. ξ: configuration not given here. Pro(trans-4-F) = O=C(O)[C@@H]1C[C@@H](F)CN1; NMeW = CN[C@@H](Cc1c[nH]c2ccccc12)C(=O)O; Benzoyl(3,5-F2) = O=C(c1cc(F)cc(F)c1)*; NMeIle(3ξ) = CCC(C)[C@H](NC)C(=O)O; NMeF = CN[C@@H](Cc1ccccc1)C(=O)O; NMeQ = CN[C@@H](CCC(N)=O)C(=O)O; NMeL = CN[C@@H](CC(C)C)C(=O)O; NMeA = CN[C@@H](C)C(=O)O; Dab = NCC[C@H](N)C(=O)O; Hexanoyl = CCCCCC(=O)*; Butyryl = CCCC(=O)*; Bz = O=C(c1ccccc1)*; NHOH = ON*

Experiments:
[1] = Parallel artificial membrane permeability assay (PAMPA), Blood-Brain Barrier; assay type: in vitro ADME; conditions: initial concentration 200 μM, pH 7.4, 4 hours; for Papp at 4 h, 200 µM: pig, read-out: Effective permeability Pe
Description: Parallel Artificial Membrane Permeability Assay (PAMPA)
Parallel artificial membrane permeability assay (PAMPA) described in Kansy et al., J. M. Chem. 1998; 41(7):1007-10 was used here to determine the capacity of compounds to cross the Blood-Brain Barrier (BBB) by passive diffusion (Di L et al., Eur. J. Med. Chem. 2003; 38(3):223-32). The effective permeability (Pe) of the compounds was measured at an initial concentration of 200 μM. The buffer solution was prepared from a commercial concentrated one following the manufacturer's instructions. pH was adjusted to 7.4 using a 0.5 M NaOH solution. A stock solution of new compound was prepared in DMSO and diluted with buffer solution to a final 200 μM concentration (0.5% DMSO content). The PAMPA sandwich was separated and each donor well was filled with […] of the compound solution. The acceptor plate was placed into the donor plate, ensuring that the underside of the membrane was in contact with buffer. 4 μL of the mixture of phospholipids (20 mg/ml) in dodecane was added to the filter of each well, and 200 μL of buffer solution was added to the each acceptor well. The plate was covered and incubated at room temperature in a saturated humidity atmosphere for 4 hours under orbital agitation at 100 rpm. After 4 hours, the contents of the acceptor and donor compartments were analyzed by HPLC: 150 μL of each well from the donor plate and 150 μL of each well from the acceptor plate were transferred to HPLC vials, injecting each sample into a reverse-phase C18 column (150 mm×4.6 mm×5 μm, 100 Å) (100 μL/injection from the acceptor wells, 10 μL/injection from the donor wells and for t0 references). Transport was also confirmed using mass spectrometry (MALDI-TOF).
The phospholipid mixture used was a porcine polar brain lipid extract, provided by Avanti polar lipids, with the following composition: 12.6% phosphatidylcholine (PC), 33.1% phosphatidylethanolamine (PE), 18.5% phosphatidylserine (PS), 4.1% phosphatidylinositol (PI), 0.8% phosphatidic acid and 30.9% of other compounds.
The effective permeability (Pe) after 4 hours was calculated using equation 2 and the percentage of transport (T %) was calculated using equation 3: […]
Ca(t) is the compound concentration in the acceptor well at time t
And Cd(t0) is the compound concentration in the donor well at t0.

MMP-3 = MMP-3 (Homo sapiens (Human), UniProt P08254); assay: MMP-3 inhibition assay (fluorogenic peptide substrate); assay type: biochemical; conditions: recombinant MMP-3 7.7 nM, Mca-RPKPVE-Nval-WRK(Dnp)-NH2 10 μM, 4 hours at room temperature; tested at 1, 10, 100 and 200 μM
MMP-3, sequence (P08254 100-477): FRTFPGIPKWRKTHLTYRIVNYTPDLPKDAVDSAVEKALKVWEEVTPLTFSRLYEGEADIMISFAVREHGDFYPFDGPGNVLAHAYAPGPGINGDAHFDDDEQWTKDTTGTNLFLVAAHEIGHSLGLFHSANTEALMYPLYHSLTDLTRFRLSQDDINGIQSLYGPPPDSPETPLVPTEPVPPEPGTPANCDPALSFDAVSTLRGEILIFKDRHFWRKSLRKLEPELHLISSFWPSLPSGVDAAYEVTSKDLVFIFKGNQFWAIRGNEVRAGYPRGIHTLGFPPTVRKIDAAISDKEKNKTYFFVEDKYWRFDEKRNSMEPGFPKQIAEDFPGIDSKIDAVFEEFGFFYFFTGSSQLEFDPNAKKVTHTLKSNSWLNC
Description: (§1) All the experiments were done in 1× reaction buffer, which was obtained from a 10× reaction buffer solution. The content of the 10× reaction buffer was: 50 mL of 0.5 M Tris-HCl, 1.5 M NaCl, 50 mM CaCl2 and 2 mM sodium azide at pH 7.6. To obtain the 1× reaction buffer 4 mL of the 10× reaction buffer were diluted in 36 mL of H2O.
Recombinant MMP-3 expressed in E. Coli was obtained from Merck-Millipore (catalog number 44217). Mca-RPKPVE-Nval-WRK(Dnp)-NH2 (fluorogenic peptide substrate) was obtained from R&D Systems (catalog number ES002).
Preparation of the MMP-3 for the activity assay: MMP-3 was provided as a stock solution (0.1 mg/mL). The enzyme was diluted in water to a final concentration of 0.005 mg/mL.
MMP-3 peptide substrate was provided as a stock solution in DMSO (4.5 mM). For the assay, the substrate was diluted 1× reaction buffer to a concentration of 100 μM.
(§2) Procedure: The enzymatic assays were performed in 96-well microtiter plate, which allowed simultaneous monitoring of multiple reactions. For each reaction, 84.6 μL of 1× reaction buffer (pH 7.6), 3.4 μL of MMP-3 (final concentration 7.7 nM) and 2 μL of the corresponding new compound were added to each well. A stock solution of new compound was prepared in DMSO (100 mM), and dilutions were prepared from this stock solution with DMSO. Finally, to the mixture contained in each well 10 μL of the substrate were added (final concentration 10 μM). The reaction was incubated for 4 hours at room temperature in an orbital shaker (90 rpm).
(§3) The inhibitory activity of the new compound was measured fluorimetrically. The excitation and emission wavelengths were 320 and 405 nm, respectively.
(§4) Inhibitory activity at several concentration points (1, 10, 100 and 200 μM) were measured for each compound. The inhibitory activity on MMP-1, MMP-3 and MMP-7 was calculated according to eq 1 and The IC50 value was calculated as explained above for MMP-2 and MMP-9.

MMP-7 = MMP-7 (Homo sapiens (Human), UniProt P09237); assay: MMP-7 inhibition assay (fluorogenic peptide substrate); assay type: biochemical; conditions: recombinant MMP-7 8.3 nM, Mca-PLGL-Dpa-AR-NH2 10 μM, 4 hours at room temperature; tested at 1, 10, 100 and 200 μM
MMP-7, sequence (P09237 95-267): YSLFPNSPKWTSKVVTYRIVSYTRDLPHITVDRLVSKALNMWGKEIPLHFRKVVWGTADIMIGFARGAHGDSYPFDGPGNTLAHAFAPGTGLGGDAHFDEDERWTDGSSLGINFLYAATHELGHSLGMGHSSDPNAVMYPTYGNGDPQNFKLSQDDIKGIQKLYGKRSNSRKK
Description: as §1
Recombinant MMP-7 expressed in E. Coli was obtained from Merck-Millipore (catalog number 44270). Mca-PLGL-Dpa-AR-NH2 (fluorogenic peptide substrate) was obtained from R&D Systems (catalog number ES001).
Preparation of the MMP-7 for the activity assay: MMP-7 was provided as a stock solution (2.1 mg/mL). The enzyme was diluted in water to a final concentration of 0.005 mg/mL.
MMP-7 peptide substrate was provided as a solid (1 mg). A 4 mM stock solution of the substrate in DMSO was obtained by adding 214.7 μL of DMSO. After which, a 100 μM solution of substrate was prepared in 1× reaction buffer.
as §2, with “MMP-7” for “MMP-3”, “8.3” for “7.7”
as §3, §4

Compound	percentage of transport % T [1] [%]	Papp at 4 h, 200 µM [1] [×10⁻⁶ cm/s]	IC50 (MMP-3) [µM]	IC50 (MMP-7) [µM]	MMP-3 IC50 (MMP-3) [µM]
CCCCCC(=O)N1CCC[C@H]1C(=O)N(C)[C@H](C(=O)N[C@@H](CCNC(=O)c1cc(F)cc(F)c1)C(=O)NO)C(C)CC (stereo partly drawn) [Example 3, (2S)—N-[(1S)-1-[[(1S)-3-[(3,5-difluorobenzoyl)amino]-1-(hydroxycarbamoyl)propyl]carbamoyl]-2-methyl-butyl]-1-hexanoyl-N-methyl-pyrrolidine-2-carboxamide]	9.3	2.3	25.4	6.61	
CCCCCCCC(=O)N1CCC[C@H]1C(=O)N(C)[C@H](C(=O)N[C@@H](CCNC(=O)c1cc(F)cc(F)c1)C(=O)NO)C(C)CC (stereo partly drawn) [Example 6, (2S)—N-[(1S)-1-[[(1S)-3-[(3,5-difluorobenzoyl)amino]-1-(hydroxycarbamoyl)propyl]carbamoyl]-2-methyl-butyl]-N-methyl-1-octanoyl-pyrrolidine-2-carboxamide]	14.3	3.5	53.4	52.6	
CCC(C)[C@@H](C(=O)N[C@@H](CCNC(=O)c1cc(F)cc(F)c1)C(=O)NO)N(C)C(=O)[C@@H]1CCCN1C(=O)[C@H](Cc1ccccc1)N(C)C(C)=O (stereo partly drawn) [Example 11, (2 S)-1-[(2S)-2-[acetyl(methyl)amino]-3-phenyl-propanoyl]-N-[(1S)-1-[[(1S)-3-[(3,5-difluorobenzoyl)amino]-1-(hydroxycarbamoyl)propyl]carbamoyl]-2-methyl-butyl]-N-methyl-pyrrolidine-2-carboxamide] (Ac-[NMeF]P[NMeIle(3ξ)][Dab](Benzoyl(3,5-F2))-{NHOH})			200	20.1	
CCCC(=O)N(C)[C@@H](Cc1c[nH]c2ccccc12)C(=O)N(C)[C@@H](CC(C)C)C(=O)N1CCC[C@H]1C(=O)N(C)[C@H](C(=O)N[C@@H](CCNC(=O)c1cc(F)cc(F)c1)C(=O)NO)C(C)CC (stereo partly drawn) [Example 14, (2S)-1-[(2S)-2-[[(2S)-2-[butanoyl(methyl)amino]-3-(1H-indol-3-yl)propanoyl]-methyl-amino]-4-methyl-pentanoyl]-N-[(1S)-1-[[(1S)-3-[(3,5-difluorobenzoyl)amino]-1-(hydroxycarbamoyl)propyl]carbamoyl]-2-methyl-butyl]-N-methyl-pyrrolidine-2-carboxamide] (Butyryl-[NMeW][NMeL]P[NMeIle(3ξ)][Dab](Benzoyl(3,5-F2))-{NHOH})				61	<1
CCC(C)[C@@H](C(=O)N[C@@H](CCNC(=O)c1ccc(F)cc1)C(=O)NO)N(C)C(=O)[C@@H]1CCCN1C(C)=O (stereo partly drawn) [Example 1, (2S)-1-acetyl-N-[(1S)-1-[[(1S)-3-[(4-fluorobenzoyl)amino]-1-(hydroxycarbamoyl)propyl]carbamoyl]-2-methyl-butyl]-N-methyl-pyrrolidine-2-carboxamide]	0.4	0.094	30.1	23	
CCCCCC(=O)N1C[C@H](F)C[C@H]1C(=O)N(C)[C@H](C(=O)N[C@@H](CCNC(=O)c1ccccc1)C(=O)NO)C(C)CC (stereo partly drawn) [Example 16, (2S,4R)—N-[(1S)-1-[[(1S)-3-benzamido-1-(hydroxycarbamoyl)propyl]carbamoyl]-2-methyl-butyl]-4-fluoro-N-methyl-1-hexanoyl-pyrrolidine-2-carboxamide] (Hexanoyl-[Pro(trans-4-F)]-[NMeIle(3ξ)]-[Dab](Bz)-{NHOH})	7.3	3.7		1	<1
CCCCCC(=O)N1CCC[C@H]1C(=O)N(C)[C@H](C(=O)N[C@@H](CCNC(=O)c1ccccc1)C(=O)NO)C(C)CC (stereo partly drawn) [Example 15, (2S)—N-[(1S)-1-[[(1S)-3-benzamido-1-(hydroxycarbamoyl)propyl]carbamoyl]-2-methyl-butyl]-N-methyl-1-hexanoyl-pyrrolidine-2-carboxamide] (Hexanoyl-Pro-[NMeIle(3ξ)]-[Dab](Bz)-{NHOH})	2.3	1.1	9.89	41.2	
CCC(C)[C@@H](C(=O)N[C@@H](CCNC(=O)c1cc(F)cc(F)c1)C(=O)NO)N(C)C(=O)[C@@H]1CCCN1C(=O)CCN(C)C(C)=O (stereo partly drawn) [Example 13, (2S)-1-[3-[acetyl(methyl)amino]propanoyl]-N-[(1S)-1-[[(1S)-3-[(3,5-difluorobenzoyl)amino]-1-(hydroxycarbamoyl)propyl]carbamoyl]-2-methyl-butyl]-N-methyl-pyrrolidine-2-carboxamide]			200	50.4	
CC(=O)N1CCC[C@H]1C(=O)N(C)[C@@H](CCC(N)=O)C(=O)N[C@@H](Cc1c[nH]c2ccccc12)C(=O)NO [Example C20, (2S)-2-[[(2S)-1-acetylpyrrolidine-2-carbonyl]-methyl-amino]-N-[(1S)-2-(hydroxyamino)-1-(1H-indol-3-ylmethyl)-2-oxo-ethyl]pentanediamide, reference compound] (Ac-Pro-[NMeQ]-Trp-{NHOH})			> 2000	> 2000	
CC(=O)N1CCC[C@H]1C(=O)N[C@@H](CCC(N)=O)C(=O)N[C@@H](Cc1c[nH]c2ccccc12)C(=O)NO [Example C17, (2S)-2-[[(2S)-1-acetylpyrrolidine-2-carbonyl)amino]-N-[(1S)-2-(hydroxyamino)-1-(1H-indol-3-ylmethyl)-2-oxo-ethyl]pentanediamide, reference compound] (Ac-Pro-Gln-Trp-{NHOH})			3.1	> 2000	
CCC(C)[C@@H](C(=O)N[C@@H](CCNC(=O)c1cc(F)cc(F)c1)C(=O)NO)N(C)C(=O)[C@@H]1CCCN1C(=O)[C@H](C)N(C)C(C)=O (stereo partly drawn) [Example 12, (2 S)-1-[(2S)-2-[acetyl(methyl)amino]propanoyl]-N-[(1S)-1-[[(1S)-3-[(3,5-difluorobenzoyl)amino]-1-(hydroxycarbamoyl)propyl]carbamoyl]-2-methyl-butyl]-N-methyl-pyrrolidine-2-carboxamide] (Ac-[NMeA]P[NMeIle(3ξ)][Dab](Benzoyl(3,5-F2))-{NHOH})			157	14.1	
